Test results as given in patent US20200270309A1, “MALEIMIDE GROUP-MODIFIED ANGIOGENESIS INHIBITOR HM-1 AND USE THEREOF” (NANJING ANJI BIOLOGICAL TECHNOLOGY CO., LTD, priority 2017, published 2020).
Marks after values point to notes of the source that are not given here. Peptide text beside a SMILES is read from it. * marks the point of attachment. X65 = O=C1C=CC(=O)N1c1cccc(CCCCCCCCCCCCC(=O)*)c1; X58 = O=C1C=CC(=O)N1c1cccc(CCCCCCCCCCCC(=O)*)c1

Tests used:
[1] = tested on: xylene-induced ear swelling; assay: Xylene-induced mouse ear swelling; format: in vivo; conditions: Kunming mice, injected once a day for 5 days; for Swelling degree / Swelling degree (mg): right minus left ear piece weight 2 h after xylene; for Inhibition rate (%): xylene-induced ear swelling
Procedure, shortened: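 Kunming mice dosed by injection once daily for 5 days; 1 h after last dose, 0.05 mL xylene applied to right ear, left ear untreated. Mice killed 2 h later; punched ear pieces weighed. Swelling degree = right minus left ear weight; swelling rate = swelling degree/left ear weight ×100%.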

[2] = tested on: carrageenan-induced toe swelling; assay: Carrageenan-induced toe swelling in rats; format: in vivo; conditions: SD rats; for Swelling degree 1 h: 1 h after carrageenan; for Swelling degree 3 h: 3 h after carrageenan; for Swelling degree 5 h: 5 h after carrageenan; for Swelling degree 7 h: 7 h after carrageenan
Procedure, shortened: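 Rats dosed by injection once daily for 3 d, controls given equal-volume saline. Right hind paw volume measured by water displacement to a marked joint line; swelling degree (mL) is paw volume after carrageenan inflammation minus volume before.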

adjuvant arthritis = assay: Rat adjuvant arthritis (AA) animal model; format: in vivo, SD rats; conditions: 4.0 mg/kg; for Clinical score: intravenous in the tail once every five days from day 10, four paws scored 0-4, max 16, mean±SD; for Joint swelling degree / Left and right paw swelling degree: intravenous in the tail once every five days from day 10, mean±SD
[3] = Half-lives and pharmacokinetic parameters of polypeptides vs HM-1; conditions: in vivo; for half-life: T1/2β (half-life)
[4] = tested on: corneal neovascularization; assay: Corneal neovascularization induced by alkali burn in BALB/c mice; format: in vivo; set-up: Inhibition rate (corneal neovascularization): concentration or dose not given beside the values; conditions: day 14 after alkali burn, vitreous injection once a day for 1 week
splenic lymphocytes = assay: Proliferation of splenic lymphocytes in mice (ConA, MTT); format: cell-based; conditions: ConA-stimulated mouse splenic lymphocytes, 48 h
Procedure, shortened: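 Mouse splenocytes (5×10^6 cells/mL, RPMI 1640 with 10% calf serum, red cells lysed) stimulated with ConA plus varying polypeptide concentrations, with blank, ConA-only and Dex groups, 48 h at 37° C. MTT added for 4 h, formazan dissolved in DMSO, OD read at 570 nm; five replicates.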

C[C@H](NC(=O)CNC(=O)[C@H](CCCNC(=N)N)NC(=O)CCCCCCCCCCCc1cccc(N2C(=O)C=CC2=O)c1)C(=O)N[C@@H](CC(=O)O)C(=O)N[C@@H](CCCNC(=N)N)C(=O)N[C@@H](C)C(=O)NCC(=O)NCC(=O)NCC(=O)NCC(=O)N[C@@H](CCCNC(=N)N)C(=O)NCC(=O)N[C@@H](CC(=O)O)C(=O)O [X35] (X58-RGADRAGGGGRGD-OH)
Swelling degree ([1]; dose 2 mg/kg): 5.59 ± 0.91 mg
Inhibition rate (%) ([1]; dose 2 mg/kg): 10.27%
Swelling degree (mg) ([1]; dose 4 mg/kg): 4.78 ± 0.64* mg
Inhibition rate (%) ([1]; dose 4 mg/kg): 23.27%
Swelling degree (mg) ([1]; dose 8 mg/kg): 3.48 ± 0.28** mg
Inhibition rate (%) ([1]; dose 8 mg/kg): 44.14%
Swelling degree 1 h ([2]; 2.0 mg/kg once a day for 3 d): 0.25 ± 0.11 mg
Swelling degree 3 h ([2]; 2.0 mg/kg once a day for 3 d): 0.38 ± 0.16 mg
Swelling degree 5 h ([2]; 2.0 mg/kg once a day for 3 d): 0.38 ± 0.19 mg
Swelling degree 7 h ([2]; 2.0 mg/kg once a day for 3 d): 0.33 ± 0.15 mg
Swelling degree 1 h ([2]; 4.0 mg/kg once a day for 3 d): 0.23 ± 0.11 mg
Swelling degree 3 h ([2]; 4.0 mg/kg once a day for 3 d): 0.36 ± 0.16 mg
Swelling degree 5 h ([2]; 4.0 mg/kg once a day for 3 d): 0.44 ± 0.14 mg
Swelling degree 7 h ([2]; 4.0 mg/kg once a day for 3 d): 0.32 ± 0.12 mg
Clinical score (adjuvant arthritis): 5.83 ± 1.07
Joint swelling degree (adjuvant arthritis): 0.85 ± 0.13 mm
Left and right paw swelling degree (adjuvant arthritis): 3.78 ± 0.56 mm
AUC(0-inf) [3]: 32000 ± 8090 ng·h/mL
MRT inf [3]: 57.1 ± 14.2 h
clearance [3]: 0.522 mL/min/kg
half-life [3]: 39.6 ± 0.31 h
Inhibition rate (corneal neovascularization) [4]: 44.60%
MVD (corneal microvessel density) [4]: 37.25 ± 4.806
A570 nm/A630 nm (splenic lymphocytes; polypeptide dose 0.05 μM): 0.6122 ± 0.1219
Inhibition rate (%) (splenic lymphocytes; polypeptide dose 0.05 μM): 9.36%
A570 nm/A630 nm (splenic lymphocytes; polypeptide dose 0.1 μM): 0.5261 ± 0.0617
Inhibition rate (%) (splenic lymphocytes; polypeptide dose 0.1 μM): 22.11%
A570 nm/A630 nm (splenic lymphocytes; polypeptide dose 0.2 μM): 0.4415 ± 0.0616
Inhibition rate (%) (splenic lymphocytes; polypeptide dose 0.2 μM): 34.63%

C[C@H](NC(=O)CNC(=O)[C@H](CCCNC(=N)N)NC(=O)CCCCCCCCCCCCc1cccc(N2C(=O)C=CC2=O)c1)C(=O)N[C@@H](CC(=O)O)C(=O)N[C@@H](CCCNC(=N)N)C(=O)N[C@@H](C)C(=O)NCC(=O)NCC(=O)NCC(=O)NCC(=O)N[C@@H](CCCNC(=N)N)C(=O)NCC(=O)N[C@@H](CC(=O)O)C(=O)O [X36] (X65-RGADRAGGGGRGD-OH)
Swelling degree ([1]; dose 2 mg/kg): 5.37 ± 0.84 mg
Inhibition rate (%) ([1]; dose 2 mg/kg): 13.80%
Swelling degree ([1]; dose 4 mg/kg): 5.37 ± 0.21 mg
Inhibition rate (%) ([1]; dose 4 mg/kg): 13.80%
Swelling degree (mg) ([1]; dose 8 mg/kg): 4.7 ± 0.97* mg
Inhibition rate (%) ([1]; dose 8 mg/kg): 24.56%
Swelling degree 1 h ([2]; 2.0 mg/kg once a day for 3 d): 0.29 ± 0.17 mg
Swelling degree 3 h ([2]; 2.0 mg/kg once a day for 3 d): 0.34 ± 0.18 mg
Swelling degree 5 h ([2]; 2.0 mg/kg once a day for 3 d): 0.43 ± 0.13 mg
Swelling degree 7 h ([2]; 2.0 mg/kg once a day for 3 d): 0.32 ± 0.15 mg
Swelling degree 1 h ([2]; 4.0 mg/kg once a day for 3 d): 0.23 ± 0.15 mg
Swelling degree 3 h ([2]; 4.0 mg/kg once a day for 3 d): 0.33 ± 0.13 mg
Swelling degree 5 h ([2]; 4.0 mg/kg once a day for 3 d): 0.35 ± 0.12 mg
Swelling degree 7 h ([2]; 4.0 mg/kg once a day for 3 d): 0.32 ± 0.17 mg
Clinical score (adjuvant arthritis): 5.71 ± 1.09
Joint swelling degree (adjuvant arthritis): 0.81 ± 0.12 mm
Left and right paw swelling degree (adjuvant arthritis): 4.00 ± 0.44 mm
AUC(0-inf) [3]: 28200 ± 8090 ng·h/mL
MRT inf [3]: 50.4 ± 10.1 h
clearance [3]: 0.592 mL/min/kg
half-life [3]: 34.9 ± 0.27 h
Inhibition rate (corneal neovascularization) [4]: 45.52%
MVD (corneal microvessel density) [4]: 36.63 ± 5.284
A570 nm/A630 nm (splenic lymphocytes; polypeptide dose 0.05 μM): 0.6051 ± 0.0633
Inhibition rate (%) (splenic lymphocytes; polypeptide dose 0.05 μM): 10.41%
A570 nm/A630 nm (splenic lymphocytes; polypeptide dose 0.1 μM): 0.4566 ± 0.1223
Inhibition rate (%) (splenic lymphocytes; polypeptide dose 0.1 μM): 32.40%
A570 nm/A630 nm (splenic lymphocytes; polypeptide dose 0.2 μM): 0.4401 ± 0.051
Inhibition rate (%) (splenic lymphocytes; polypeptide dose 0.2 μM): 34.84%
